According to patent publication US7375096B1, “Method of preparing a supramolecular complex containing a therapeutic agent and a multi-dimensional polymer network” (California Institute of Technology, priority 1998, dated 2008):

Legend:
DNA = experiment: Pentalysine DNA binding with crosslinker DTBP and reducing agent TCEP (agarose gel)
Method: Pentalysine was added to DNA for 15 minutes. Crosslinker DTBP was then added to the solution mixture for over 60 minutes. TCEP was added and an agarose gel was run after 30 minutes. […] Thus, crosslinking with DTBP increased the affinity of pentalysine to DNA.

Method for BHK-21 cells: BHK-21 cells were plated in 24 well plates at a cell density of 60,000 cells/well 24 hours before transfection. […] Media solution containing the DNA/polymer complexes was added to cultured cells and replaced with fresh media after 24 hours of incubation at 37° C. The cells were lysed 48 hours after transfection. […] Cell lysate was also used to determine cell viability by the Lowry protein assay.

| binding to DNA (DNA) | Substance | toxicity (cell viability, Lowry protein assay) (BHK-21 cells) |
| --- | --- | --- |
|  | β-Cyclodextrin(cystamine)-DMS copolymer [copolymer 15] | No toxicity was observed |
| not strong enough to bind to the DNA | Pentalysine |  |
